One series deals with THP-1 macrophages. Briefly: Cytotoxicity against THP-1 macrophages (CellTiter-Blue). Format: cell-based, human. As for the experimental part: THP-1 (human acute monocytic leukemia-derived) host macrophages were cultured in RPMI 1640 supplemented with 10% FCS and a penicillin-streptomycin antibiotic solution (10,000 U/mL penicillin, 10,000 μg/mL streptomycin) at 37°C with 5% CO2. THP-1 cells were incubated with 0.25 μM phorbol 12-myristate […] (PMA) for 48 h to differentiate into mature macrophages. Differentiated macrophages were seeded into 96-well plates at 5 × 10^6 cells/mL and incubated for 48 h in the presence of 20 μM antimicrobial peptides along with the appropriate solvent controls. Cell viability assays were conducted using CellTiter-Blue (Promega), based on resazurin reduction. After the 48-h incubation period, CellTiter-Blue reagent was added to cells for 4 h at 37°C, and fluorescence was measured (555-nm excitation/580-nm emission) using a FlexStation 3 benchtop multimode reader (Molecular Devices). Each assay was performed in triplicate. The CC50 values were calculated by nonlinear regression analysis using GraphPad Prism 9.0 for Windows.
(Resazurin is reduced to fluorescent resorufin, in cell work by metabolically active cells.)

For series [1], the system named is Leishmania donovani axenic amastigotes. As for the experimental part: We utilized a previously developed high-throughput screening assay using transgenic axenic amastigotes expressing a red fluorescent protein, mCherry. Changes in mCherry fluorescence were normalized to 50 μM miltefosine in order to quantify parasite inhibition ([52]). In total, 5 scaffold 25-mer peptides and 475 synthetic 25-mer peptide variants were screened (Fig. 1). […] The assay was repeated, and the average percent parasite killing was determined.
Axenic amastigotes were differentiated as described previously ([69]).
Axenic amastigotes were differentiated as described previously ([69]); briefly, transgenic L. donovani promastigotes expressing mCherry were differentiated by pH and temperature shifts. Amastigotes were seeded into 96-well plates at 5 × 10^6 cells/mL and incubated for 48 h in the presence of decreasing drug concentrations, starting at 20 μM, along with the appropriate solvent controls. Fluorescence was monitored (587-nm excitation/610-nm emission) over 48 h using a FlexStation 3 benchtop multimode reader (Molecular Devices). […] Thus, changes in mCherry fluorescence were normalized to the 50 μM miltefosine control in order to quantify parasite inhibition. Each assay was performed in triplicate. The IC50 values were calculated by nonlinear regression analysis using GraphPad Prism 9.0 for Windows.

Where [2] appears, read: read-out: Axenic amastigotes Mean IC50 ± SD.
The mark [3] stands for this setting: read-out: Axenic amastigotes Mean IC50 ± SD, L. donovani mCherry axenic amastigotes, 48 h, fluorescence normalized to 50 μM miltefosine, highest concentration 20 μM, mean of three replicates.

Like-named read-outs stand apart in the source and are kept apart here. No end group written: not given here. Some results are limits rather than exact numbers.

The values that follow come from publication PMC9769502 (Microbiology Spectrum, 2022).

As for “AGANRLTKELLEYLRKFGKIWRKAW [Syn-xiamencin-40]”, the “THP-1 macrophage CC50” value with THP-1 macrophages is under 20 µM. Besides, the half-maximal inhibitory concentration (IC50) (usually the concentration needed to halve the response being measured) in series [1] (setting [2]) came out at 1.31 µM.
Consider “AGANRLTKELLEYLRKFWKIARKAW [Syn-xiamencin-24]”, for which the “THP-1 macrophage CC50” value in the series on THP-1 macrophages is under 20 µM. The IC50 in series [1] (setting [3]) was determined as 1.63 µM.
In the case of “AGANRLWKELLEYLRKFGKIARKAW [Syn-xiamencin-48]”, the “THP-1 macrophage CC50” value with THP-1 macrophages was under 20 µM. Further, the half-maximal inhibitory concentration (IC50) in series [1] (setting [2]) is 2.18 µM.
For “AGAQRLTKELLEYLRKFGKIWRKAW [Syn-xiamencin-39]” the same measures were under 20 µM and 6.81 µM.
On to “AGAQRLTKELLEYLRKFWKIARKAW [Syn-xiamencin-23]”, for which the “THP-1 macrophage CC50” value with THP-1 macrophages was under 20 µM. Further, the IC50 in series [1] (setting [3]) was found to be 1.14 µM.
For “AGAQRLTLYLKEELRKRWKKAFIAW [Syn-xiamencin-18]” the same measures were under 20 µM and 0.65 µM.
Take “AGAQRLWKELLEYLRKFGKIARKAW [Syn-xiamencin-47]”: the “THP-1 macrophage CC50” value with THP-1 macrophages is under 20 µM. For the same sequence, the IC50 in series [1] (setting [2]) stood at 2.68 µM.
For “AGKEKIRKKLKNEIKKKGRKAWIAW [Syn-safencin 72]”, the “THP-1 macrophage CC50” value in the series with THP-1 macrophages and in the series with THP-1 macrophages (48 h) was over 20 µM throughout. The half-inhibitory concentration (IC50) in series [1] (48 h) was 12.07 ± 0.09 µM.
On to “AGKEKIRKKLKNEIKKKGRKWVIAW [Syn-safencin-64]”, for which the “THP-1 macrophage CC50” value in the series on THP-1 macrophages is under 20 µM. For the same sequence, the half-maximal inhibitory concentration (IC50) in series [1] (setting [3]) stood at 0.33 µM.
In the case of “AGKEKIRKKLKNEWKKKGRKAVIAW [Syn-safencin-48]”, the “THP-1 macrophage CC50” value in the series with THP-1 macrophages is under 20 µM. For the same sequence, the IC50 in series [1] (setting [3]) came out at 1.75 µM.
Taken in the same sequence, the figures for “AGKEKIRKKWKNEIKKKGRKAVIAW [Syn-safencin-40]” were under 20 µM and 2.12 µM.
Taken in the same sequence, the figures for “AGKEKIRQFLKKKIQEGKKRATIAW [Syn-larvacin-76]” were under 20 µM and 1.58 µM.
Taken in the same sequence, the figures for “AGKEKIRQFLKKKIQEKGKRATIAW [Syn-larvacin-73]” were under 20 µM and 0.39 µM.
Take “AGKEKIRQFLKKTIQEKGKRAKIAW [Syn-larvacin-77]”: the “THP-1 macrophage CC50” value in the series with THP-1 macrophages was under 20 µM. Moreover, the 50% inhibitory concentration (IC50) in series [1] (setting [3]) was found to be 10.3 µM.
For the sequence “AGKEKIRQYLKNEIKKKGRKAVWAW [Syn-safencin 77]”, the “THP-1 macrophage CC50” value with THP-1 macrophages and in the series with THP-1 macrophages (48 h) was over 20 µM in each case. The same sequence registered an IC50 in series [1] (48 h) of 0.39 ± 0.13 µM.
In the case of “AGKEKIRQYLKNEIKKKGRKAWIAW [Syn-safencin-69]”, in the series on THP-1 macrophages, the “THP-1 macrophage CC50” value was under 20 µM. For the same sequence, in series [1] (setting [3]), the IC50 was found to be 3.37 µM.
For “AGKEKIRQYLKNEIKKKGRKWVIAW [Syn-safencin-61]” the same measures were under 20 µM and 3.56 µM.
For “AGKEKIRQYWKNEIKKKGRKAVIAW [Syn-safencin-37]” the same measures were under 20 µM and 5.21 µM.
For “AGKEKWRKKLKNEIKKKGRKAVIAW [Syn-safencin-32]”, the “THP-1 macrophage CC50” value with THP-1 macrophages was under 20 µM. In addition, the concentration for half-maximal inhibition (IC50) in series [1] (setting [3]) was 4.62 µM.
Taken in the same sequence, the figures for “AGKETIFQRLKKKIQEKGKRATIAW [Syn-larvacin-3]” were “below 20 μM” and 0.36 µM.
As for “AGKETIFQRLKKKIQEKWKRATIAW [Syn-larvacin-43]”, in the series with THP-1 macrophages, the “THP-1 macrophage CC50” value is under 20 µM. Also, the IC50 in series [1] (setting [3]) worked out at 0.22 µM.
In the case of “AGKETIFWRLKKKIWEKGKRATIAW [Syn-larvacin-51]”, in the series with THP-1 macrophages, the “THP-1 macrophage CC50” value is under 20 µM. In series [1] (setting [3]), the IC50 is 0.42 µM.
On to “AGKETIRKYLKNEIKKKGRKAVIAW [Syn-safencin 6]”, for which the “THP-1 macrophage CC50” value with THP-1 macrophages and with THP-1 macrophages (48 h) was over 20 µM in each case. The IC50 in series [1] (48 h) came to 0.48 ± 0.07 µM.
Taken in the same sequence, the figures for “AGKETIRKYLKNEIKKKGRKAVWAW [Syn-safencin 78]” were over 20 µM, over 20 µM and 0.94 ± 0.14 µM.
Consider “AGRQALTLELKEYLRKRGKKWFIAW [Syn-xiamencin-35]”, for which, in the series on THP-1 macrophages, the “THP-1 macrophage CC50” value is under 20 µM.
